{"source": "paper PMC7920280", "about": "“The Multi-Targeting Ligand ST-2223 with Histamine H3 Receptor and Dopamine D2/D3 Receptor Antagonist Properties Mitigates Autism-Like Repetitive Behaviors and Brain Oxidative Stress in Mice” (International Journal of Molecular Sciences, 2021)", "key": {"[1]": {"system": "mice with valproic acid (VPA)-induced ASD", "conditions": "cited from earlier work"}, "BTBR and B6 mice [2]": {"system": "BTBR and B6 mice", "assay": "Marble burying task (MBT)", "format": "in vivo", "conditions": "BTBR mice", "protocol": "(§1) The drugs tested included ST-2223 [N-(4-(4-(2-methoxyphenyl)piperazin-1-yl)butyl)-6-(3-(piperidin-1-yl)propoxy)-2-naphthamide] that was designed and synthesized in the Institute of Pharmaceutical and Medicinal Chemistry, Heinrich Heine University Düsseldorf, Germany, and in accordance with previously described methodologies (Supplementary Materials). Aripiprazole (ARP) (1 mg/kg, i.p.) and memantine (MEM, 5 mg/kg, i.p.), as reference drugs, were purchased from Sigma-Aldrich (St. Louis, MO, USA). The CNS-penetrant H3R agonist (R)-α-methylhistamine (RAM, 10 mg/kg, i.p.) was purchased from Sigma-Aldrich, St. Louis, MO, USA. T. Protease and the phosphatase inhibitor cocktail were procured from Thermo Scientific, USA. The assay kit for reduced glutathione (GSH) was obtained from Sigma-Aldrich (St. Louis, MO, USA). The lipid peroxidation assay kit for estimation of malondialdehyde (MDA) was purchased from North West Life Science (Vancouver, WA, USA). The assay kits for superoxide dismutase (SOD) and catalase (CAT) were purchased from Cayman Chemical (Ann Arbor, MI, USA). The drugs were prepared daily using 1% dimethyl sulfoxide (DMSO) in 0.9% saline, for intraperitoneal (i.p.) administration at a volume of 10 mL/kg of body weight. Vehicle treatment consisted of 1% DMSO in 0.9% normal saline. All drugs were i.p. administered 30 min before the behavioral test. The doses of these drugs were chosen based on previous reports. Neurobehavioral assessment was performed blindly with respect to experimental group and drug administration.\nThe MBT is used for testing repetitive and compulsive behaviors as it accurately reflects repetitive digging behavior [95, 96]. The test was performed as described previously, with slight modifications. Briefly, cages (26 cm × 48 cm × 20 cm) were filled with fresh, unscented mouse bedding material to a depth of 5 cm, on top of which 20 marbles were placed in 4 rows of 5 marbles each (15 mm diameter). Before placing the marbles, the bedding surface was leveled by placing another cage of the same size onto the surface of the bedding and then each mouse was individually added for 10 min habituation. After habituation, the mouse was removed, and the marbles were carefully overlaid. The same mouse was then returned to its designated test cage and allowed to explore for 30 min. The total number of marbles buried (>50% marble covered by the bedding material) was determined at the end of the session."}, "BTBR and B6 mice [3]": {"system": "BTBR and B6 mice", "assay": "Spontaneous alternation behavior (SAB), Y maze", "format": "in vivo", "conditions": "BTBR mice; RAM 10 mg/kg i.p. co-administered with ST-2223 5 mg/kg", "protocol": "as §1\nThe SAB test is based on the exploratory strategy of rodents to explore a new environment. In examining repetitive behaviors, the Y maze test took advantage of the rodents’ natural tendency to spontaneously alternate or choose a different arm of the maze instead of the one they visited on their previous entry (i.e., least recently visited arm). A decrease in the percentage alternation can also be attributed to same arm repeated visits. Spontaneous alternation behavior was measured on a Y maze apparatus, as previously described, with slight modifications. The Y maze composed of three arms (30 cm × 6 cm × 15 cm), where the arms were labeled with letters: A, B, or C. The test mouse was placed in the center of the maze and was allowed to freely explore the maze for 8 min. The number of entries into each arm and the total number of entries were recorded by the observer. A spontaneous alternation was defined as successive entry into three arms on an overlapping triplet set. Percentage spontaneous alternation was calculated as the number of spontaneous alternations (actual alternations) over the total number of entries (possible alternations). Two arm entries were subtracted from the denominator because an alternation required at least 3 entries. The apparatus was cleaned with 70% alcohol solution after each mouse was tested. (1) Percentage spontaneous alternations=Total alternations/(Total arm entries − 2) ×100"}, "BTBR and B6 mice [4]": {"system": "BTBR and B6 mice", "assay": "Open field test (OFT): locomotor activity and anxiety levels", "format": "in vivo", "conditions": "BTBR mice", "protocol": "as §1\nThe open field test (OFT) systematically evaluates exploration behaviors executed in a novel open field (considered as a novel environment), as an independent control for the effects of the drugs on physical activity that could confound the interpretation of the results from the self-grooming, anxiety and spontaneous alternation. Mice were allowed to freely explore an open-field arena (45 × 45 × 30 cm), to assess general locomotor activity, and anxiety-related behaviors. The center arena was defined as the central 23 × 23 cm area. Mice were given 5 min to habituate in the center area of the arena before the recording started for the actual behavioral assessments. Recording lasted for 10 min using charge-coupled device (CCD) camera-assisted motion tracking apparatus and software (EthoVision 3.1, Noldus Information Technology, The Netherlands), and the total distance moved in the whole arena, time spent in the center and periphery were recorded. Test chambers were cleaned with 70% ethanol after each trial and were allowed to dry until ethanol evaporation and odor dissipation had occurred. When interpreting the results observed in this assessment, less time spent in the center was considered as an indicator for high levels of anxiety-like behaviors and total distance travelled signified the overall locomotor activity of tested animals."}, "BTBR and B6 mice [5]": {"system": "BTBR and B6 mice", "assay": "Self-grooming paradigm (SGP)", "format": "in vivo", "conditions": "BTBR mice; RAM 10 mg/kg i.p. co-administered with ST-2223 5 mg/kg", "protocol": "as §1\nIn the SGP test, mice were scored for spontaneous grooming behaviors. […] To measure SGP, each mouse was placed individually in a standard clear plastic cage (28 cm wide × 17 cm long × 12 cm high) for a total of 20 min. Mice were allowed to freely explore the cage for the entire test, the first 10 min served as a habituation period. After 10 min habituation, each mouse was scored with a stopwatch for 10 min for cumulative time spent grooming all body regions. Grooming behavior included head washing, body grooming, genital/tail grooming and paw and leg licking. The observer sat approximately 1 m from the test cage during the second 10 min of testing."}, "mice sensitized with PCP": {"system": "mice sensitized with PCP", "conditions": "acute low dose of PCP in mice sensitized by repeated high-dose PCP; cited from earlier work"}, "[6]": {"system": "oxidative stress markers (e.g., MDA and GSH)", "design": "method as in PMID 27833522, PMID 27089413, PMID 22331799", "conditions": "amphetamine- or dizocilpine-augmented oxidative stress, mouse model of schizophrenia; cited from earlier work"}, "[7]": {"conditions": "RAM 10 mg/kg i.p. co-administered with ST-2223 5 mg/kg"}}, "data": [{"smiles": "CCC(C)(C)c1ccc(OCCCN2CCCCC2)cc1", "note": "[DL77]", "values": [{"measurement": "percentage of marbles buried", "setting": "[1]; adult male Tuck-Ordinary mice with VPA-induced ASD features, subchronic 5, 10, 15 mg/kg, i.p.", "result": "significant and dose-dependent"}]}, {"smiles": "C[C@@H](N)Cc1c[nH]cn1", "note": "[RAM, (R)-α-methylhistamine]", "values": [{"measurement": "marble burying behavior vs saline-treated BTBR mice, given alone", "setting": "BTBR and B6 mice [2]; RAM 10 mg/kg i.p. alone", "result": "did not alter"}, {"measurement": "effect of co-administration on the ST-2223 (5 mg)-stimulated decrease in percentage of buried marbles", "setting": "BTBR and B6 mice [2]; [7]", "result": "reversed"}, {"measurement": "effect of co-administration on the ST-2223 (5 mg)-induced enhancement in alternation", "setting": "BTBR and B6 mice [3]", "result": "entirely reversed"}, {"measurement": "time spent in the center (OFT) vs saline-treated BTBR mice, given alone", "setting": "BTBR and B6 mice [4]; RAM 10 mg/kg i.p. alone", "result": "did not induce any alternation"}, {"measurement": "effect of co-administration on the ST-2223 (5 mg)-induced increase in time spent in the center (OFT)", "setting": "BTBR and B6 mice [4]; [7]", "result": "not reversed"}, {"measurement": "effect of co-administration on the ST-2223 (5 mg)-induced decrease in time spent self-grooming", "setting": "BTBR and B6 mice [5]", "result": "nullified"}]}, {"smiles": "CN1CCCC1CCNS(=O)(=O)c1ccc2c(c1)CN(CC1CCCCC1)CC2", "note": "(centres unmarked) [SAR110894]", "values": [{"measurement": "deficit in working memory in the Y maze test", "setting": "mice sensitized with PCP", "result": "reversed"}]}, {"smiles": "O=C(c1ccc(OCCCc2cnc[nH]2)cc1)C1CC1", "note": "[ciproxifan]", "values": [{"measurement": "oxidative stress markers (e.g., MDA and GSH)", "setting": "[6]", "result": "mitigated"}, {"measurement": "repetitive behavior in the MBT", "setting": "[1]; mice with VPA-induced ASD", "result": "reduced repetitive behavior"}]}, {"smiles": "NC(=NCc1ccc(Cl)cc1)SCCCc1cnc[nH]1", "note": "[clobenpropit]", "values": [{"measurement": "oxidative stress markers (e.g., MDA and GSH)", "setting": "[6]", "result": "mitigated"}]}]}
